Measured values taken from ChEMBL document CHEMBL1158047, “Lanostane triterpenoids from the Sri Lankan basidiomycete Ganoderma applanatum” (2006).

Tested on: P388
Experiment: Cytotoxicity against mouse P388 cells
Type: functional

SMILES	Activity
C=C(C(=O)C[C@@H](C)[C@H]1CC[C@@]2(C)C3=C(CC[C@]12C)[C@@]1(C)CC[C@@H](OC(=O)CC(=O)O)C(C)(C)[C@@H]1CC3)C(C)C(=O)O (stereo not given in full)	>125 µg/mL
CC(C)=CCC[C@@H](C(=O)O)[C@H]1[C@H](O)C[C@@]2(C)C3=CC[C@H]4C(C)(C)[C@H](O)CC[C@]4(C)C3=CC[C@]12C	>125 µg/mL
C/C(=C\CC[C@@H](C(=O)O)[C@H]1[C@H](O)C[C@@]2(C)C3=CC[C@H]4C(C)(C)[C@H](O)CC[C@]4(C)C3=CC[C@]12C)CO	>125 µg/mL
CC(C)=CCC[C@@H](C(=O)O)[C@H]1[C@H](O)C[C@@]2(C)C3=CC[C@H]4C(C)(C)C(=O)CC[C@]4(C)C3=CC[C@]12C	237 µM
CC(C(=O)O)[C@@H](C)C(=O)C[C@@H](C)[C@H]1CC[C@@]2(C)C3=C(CC[C@]12C)[C@@]1(C)CC[C@@H](OC(=O)CC(=O)O)C(C)(C)[C@@H]1CC3 (stereo not given in full) [CARBOXYACETYLQUERCINIC ACID]	>125 µg/mL
